Assays:
[1] = molecular target: Protein deacetylase HDAC6 (Homo sapiens, UniProt Q9UBN7); assay: Inhibition of recombinant human HDAC6 using HDAC substrate incubated for 30 mins by fluorescence based assay
HL-60 [2] = assay: Induction of apoptosis in human HL-60 cells assessed as late apoptotic cells at 0.2 uM incubated for 48 hrs by annexin V-FITC/PI satining based flow cytometry (reference value: 1.33 %); type: functional
[3] = molecular target: CDK12/Cyclin K (Homo sapiens) (UniProt O75909+Q9NYV4); assay: Inhibition of CDK12/cyclinK (unknown origin) at 100 nM preincubated for 20 mins followed by [gamma-33P]ATP addition measured after 120 mins in presence of ATP by Hot-SpotSM kinase assay relative to control; type: protein-complex assay; conditions: time 140.0 min
Sequence of CDK12/Cyclin K (Homo sapiens) (O75909 whole entry, looked up): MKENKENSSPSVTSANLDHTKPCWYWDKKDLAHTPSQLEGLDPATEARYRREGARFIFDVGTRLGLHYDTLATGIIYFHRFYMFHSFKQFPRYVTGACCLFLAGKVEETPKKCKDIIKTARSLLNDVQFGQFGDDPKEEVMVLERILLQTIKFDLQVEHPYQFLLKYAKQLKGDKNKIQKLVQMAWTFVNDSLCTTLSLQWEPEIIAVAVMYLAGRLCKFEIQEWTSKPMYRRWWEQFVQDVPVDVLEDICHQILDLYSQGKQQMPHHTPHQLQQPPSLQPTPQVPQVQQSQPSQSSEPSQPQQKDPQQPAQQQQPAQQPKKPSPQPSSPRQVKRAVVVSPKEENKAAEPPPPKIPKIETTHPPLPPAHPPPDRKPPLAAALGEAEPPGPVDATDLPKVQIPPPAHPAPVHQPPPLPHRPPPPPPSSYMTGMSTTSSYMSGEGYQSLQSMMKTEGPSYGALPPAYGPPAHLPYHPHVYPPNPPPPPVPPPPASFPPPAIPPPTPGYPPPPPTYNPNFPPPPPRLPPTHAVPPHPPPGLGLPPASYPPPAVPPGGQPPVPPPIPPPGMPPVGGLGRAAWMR
Sequence of CDK12/Cyclin K (Homo sapiens) (Q9NYV4 whole entry, looked up): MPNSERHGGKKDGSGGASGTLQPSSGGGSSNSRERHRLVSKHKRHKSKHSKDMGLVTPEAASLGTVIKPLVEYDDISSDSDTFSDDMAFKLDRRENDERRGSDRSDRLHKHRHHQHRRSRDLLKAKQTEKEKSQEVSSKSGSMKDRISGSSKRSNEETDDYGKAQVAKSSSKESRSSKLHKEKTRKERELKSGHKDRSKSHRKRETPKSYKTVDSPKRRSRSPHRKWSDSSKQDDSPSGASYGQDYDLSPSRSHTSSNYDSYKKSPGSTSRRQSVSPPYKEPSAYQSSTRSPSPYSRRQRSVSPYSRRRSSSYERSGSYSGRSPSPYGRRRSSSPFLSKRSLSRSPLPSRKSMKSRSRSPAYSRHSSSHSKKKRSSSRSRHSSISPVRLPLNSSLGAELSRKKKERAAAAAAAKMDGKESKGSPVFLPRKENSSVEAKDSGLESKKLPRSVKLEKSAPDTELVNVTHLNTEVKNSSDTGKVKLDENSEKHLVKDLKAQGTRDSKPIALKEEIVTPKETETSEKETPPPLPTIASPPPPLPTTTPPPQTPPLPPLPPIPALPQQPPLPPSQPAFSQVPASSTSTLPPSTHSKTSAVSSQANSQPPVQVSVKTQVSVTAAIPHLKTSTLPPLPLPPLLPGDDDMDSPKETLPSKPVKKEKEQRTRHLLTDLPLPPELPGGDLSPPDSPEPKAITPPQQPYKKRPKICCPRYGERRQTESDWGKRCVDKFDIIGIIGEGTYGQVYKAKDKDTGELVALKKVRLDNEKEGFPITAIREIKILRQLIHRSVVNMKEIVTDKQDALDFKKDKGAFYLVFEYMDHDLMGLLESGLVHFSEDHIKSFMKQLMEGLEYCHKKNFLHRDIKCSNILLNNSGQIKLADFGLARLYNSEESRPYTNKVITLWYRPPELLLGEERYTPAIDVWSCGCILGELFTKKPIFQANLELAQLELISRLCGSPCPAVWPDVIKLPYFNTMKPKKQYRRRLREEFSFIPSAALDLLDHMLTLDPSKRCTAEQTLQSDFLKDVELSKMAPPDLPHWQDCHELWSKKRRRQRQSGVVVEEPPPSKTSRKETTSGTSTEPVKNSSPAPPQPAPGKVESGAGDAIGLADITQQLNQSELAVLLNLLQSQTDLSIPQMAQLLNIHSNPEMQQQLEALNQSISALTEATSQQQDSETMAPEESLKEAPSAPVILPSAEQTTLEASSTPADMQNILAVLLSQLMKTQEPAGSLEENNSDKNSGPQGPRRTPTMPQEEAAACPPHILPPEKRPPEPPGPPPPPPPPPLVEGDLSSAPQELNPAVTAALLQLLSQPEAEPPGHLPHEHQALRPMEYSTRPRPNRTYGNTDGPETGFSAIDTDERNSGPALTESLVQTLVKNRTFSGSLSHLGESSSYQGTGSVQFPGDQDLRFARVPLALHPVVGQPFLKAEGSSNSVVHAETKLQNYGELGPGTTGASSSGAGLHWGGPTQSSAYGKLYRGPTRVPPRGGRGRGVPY

HL-60 [4] = assay: Upregulation of Ac-Histone 3 level in human HL-60 cells incubated for 6 hrs by Western blot analysis; type: functional, cell-based; conditions: dose <= 1000.0 nM
Histone deacetylase 9 = Histone deacetylase 9 (Homo sapiens, UniProt Q9UKV0); assay: Inhibition of recombinant human HDAC9 using HDAC substrate incubated for 30 mins by fluorescence based assay
HL-60 [5] = assay: Induction of apoptosis in human HL-60 cells assessed as late apoptotic cells at 0.5 uM incubated for 48 hrs by annexin V-FITC/PI satining based flow cytometry (reference value: 1.33 %); type: functional
[6] = molecular target: CDK1/Cyclin A (Homo sapiens) (UniProt P06493+P20248); assay: Inhibition of CDK1/cyclinA2 (unknown origin) at 100 nM preincubated for 20 mins followed by [gamma-33P]ATP addition measured after 120 mins in presence of ATP by Hot-SpotSM kinase assay relative to control; type: protein-complex assay; conditions: time 140.0 min
Sequence of CDK1/Cyclin A (Homo sapiens) (P06493 whole entry, looked up): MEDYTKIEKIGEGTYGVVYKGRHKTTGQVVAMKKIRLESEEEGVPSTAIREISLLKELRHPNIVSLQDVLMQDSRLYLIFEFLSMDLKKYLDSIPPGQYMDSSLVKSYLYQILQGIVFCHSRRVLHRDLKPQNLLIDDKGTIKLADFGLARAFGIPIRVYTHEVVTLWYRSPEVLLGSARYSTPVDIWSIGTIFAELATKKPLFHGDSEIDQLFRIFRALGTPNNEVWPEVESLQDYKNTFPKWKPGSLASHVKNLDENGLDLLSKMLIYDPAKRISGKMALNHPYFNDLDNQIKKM
Sequence of CDK1/Cyclin A (Homo sapiens) (P20248 whole entry, looked up): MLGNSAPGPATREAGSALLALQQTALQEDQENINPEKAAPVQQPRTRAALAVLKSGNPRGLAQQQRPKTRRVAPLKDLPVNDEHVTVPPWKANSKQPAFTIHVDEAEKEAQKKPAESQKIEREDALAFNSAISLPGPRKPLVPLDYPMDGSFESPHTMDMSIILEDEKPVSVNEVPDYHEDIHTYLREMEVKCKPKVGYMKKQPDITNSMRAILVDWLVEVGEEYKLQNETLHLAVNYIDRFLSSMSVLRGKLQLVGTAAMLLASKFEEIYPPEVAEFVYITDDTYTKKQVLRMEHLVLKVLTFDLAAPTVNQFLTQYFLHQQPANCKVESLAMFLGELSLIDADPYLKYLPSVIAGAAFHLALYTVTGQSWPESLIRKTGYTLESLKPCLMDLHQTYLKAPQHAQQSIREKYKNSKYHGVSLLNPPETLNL

HL-60 [7] = assay: Induction of differentiation in human HL-60 cells assessed as increase in CD11b positive cells at 0.5 uM incubated for 24 hrs by FITC staining based flow cytometry (reference value: 1.45 %); type: functional
HL-60 [8] = assay: Induction of apoptosis in human HL-60 cells assessed as viable cells at 1 uM incubated for 48 hrs by annexin V-FITC/PI satining based flow cytometry (reference value: 97.4 %); type: functional; conditions: read-out: Activity
HL-60 [9] = assay: Induction of apoptosis in human HL-60 cells assessed as early apoptotic cells at 0.2 uM incubated for 48 hrs by annexin V-FITC/PI satining based flow cytometry (reference value: 1.24 %); type: functional
[10] = molecular target: Cyclin-dependent kinase 2/cyclin E1 (Homo sapiens) (UniProt P24864+P24941); conditions: dose 100.0 nM, time 140.0 min
U-937 [11] = assay: Induction of apoptosis in human U-937 cells assessed as necrotic cells at 1 uM incubated for 48 hrs by annexin V-FITC/PI satining based flow cytometry (reference value: 1.96 %); type: functional
[12] = AUC in Sprague-Dawley rat at 25 mg/kg, po measured upto 8 hrs by LC/MS-MS analysis; type: ADME, organism-based; design: time < 8 hrs, dose 25 mg/kg, route po; conditions: in vivo
HL-60 [13] = assay: Induction of apoptosis in human HL-60 cells assessed as viable cells at 0.2 uM incubated for 48 hrs by annexin V-FITC/PI satining based flow cytometry (reference value: 97.4 %); type: functional; conditions: read-out: Activity
[14] = Antiproliferative activity against HEK293T cells incubated for 72 hrs by CCK8 assay; type: toxicity, cell-based, HEK-293T; conditions: human
[15] = molecular target: Cyclin-Y/Cyclin-dependent kinase 16 (Homo sapiens) (UniProt Q00536+Q8ND76); conditions: dose 100.0 nM, time 140.0 min
U-937 [16] = assay: Induction of apoptosis in human U-937 cells assessed as viable cells at 2 uM incubated for 48 hrs by annexin V-FITC/PI satining based flow cytometry (reference value: 90.0 %); type: functional; conditions: read-out: Activity
[17] = MRT in Sprague-Dawley rat at 5 mg/kg, iv measured upto 6 hrs by LC/MS-MS analysis; type: ADME, organism-based; conditions: in vivo
HL-60 [18] = assay: Induction of apoptosis in human HL-60 cells assessed as necrotic cells at 2 uM incubated for 48 hrs by annexin V-FITC/PI satining based flow cytometry (reference value: 0.00 %); type: functional
U-937 [19] = assay: Induction of apoptosis in human U-937 cells assessed as viable cells at 0.5 uM incubated for 48 hrs by annexin V-FITC/PI satining based flow cytometry (reference value: 90.0 %); type: functional; conditions: read-out: Activity
[20] = molecular target: CDK3/Cyclin E (Homo sapiens) (UniProt P24864+Q00526); assay: Inhibition of CDK3/cyclinE1 (unknown origin) at 100 nM preincubated for 20 mins followed by [gamma-33P]ATP addition measured after 120 mins in presence of ATP by Hot-SpotSM kinase assay relative to control; type: protein-complex assay; conditions: time 140.0 min
Sequence of CDK3/Cyclin E (Homo sapiens) (P24864 whole entry, looked up): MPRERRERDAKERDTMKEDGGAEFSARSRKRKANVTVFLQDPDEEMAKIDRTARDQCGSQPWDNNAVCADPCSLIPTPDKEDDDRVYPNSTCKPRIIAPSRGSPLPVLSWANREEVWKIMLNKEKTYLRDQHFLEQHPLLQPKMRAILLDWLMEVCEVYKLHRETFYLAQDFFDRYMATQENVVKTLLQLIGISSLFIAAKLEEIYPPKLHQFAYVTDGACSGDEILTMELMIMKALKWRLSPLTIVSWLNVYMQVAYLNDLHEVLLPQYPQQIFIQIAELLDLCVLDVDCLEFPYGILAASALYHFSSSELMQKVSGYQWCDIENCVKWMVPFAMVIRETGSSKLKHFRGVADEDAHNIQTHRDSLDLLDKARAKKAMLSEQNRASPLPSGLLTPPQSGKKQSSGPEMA
Sequence of CDK3/Cyclin E (Homo sapiens) (Q00526 whole entry, looked up): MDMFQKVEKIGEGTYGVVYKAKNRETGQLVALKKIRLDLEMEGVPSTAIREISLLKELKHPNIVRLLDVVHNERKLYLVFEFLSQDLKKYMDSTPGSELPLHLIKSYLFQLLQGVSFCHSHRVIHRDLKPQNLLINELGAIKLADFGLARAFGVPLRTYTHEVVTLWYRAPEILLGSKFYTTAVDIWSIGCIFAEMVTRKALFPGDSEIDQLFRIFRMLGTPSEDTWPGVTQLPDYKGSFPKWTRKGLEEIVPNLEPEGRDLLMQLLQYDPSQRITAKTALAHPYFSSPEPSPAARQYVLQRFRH

[21] = Cmax in Sprague-Dawley rat at 25 mg/kg, po measured upto 8 hrs by LC/MS-MS analysis; type: ADME, organism-based; design: time < 8 hrs, dose 25 mg/kg, route po; conditions: in vivo
HL-60 [22] = assay: Induction of apoptosis in human HL-60 cells assessed as early apoptotic cells at 0.6 uM incubated for 48 hrs by annexin V-FITC/PI satining based flow cytometry (reference value: 2.4 %); type: functional
HL-60 [23] = assay: Induction of apoptosis in human HL-60 cells assessed as necrotic cells at 1.2 uM incubated for 48 hrs by annexin V-FITC/PI satining based flow cytometry (reference value: 0.04 %); type: functional
U-937 [24] = assay: Induction of apoptosis in human U-937 cells assessed as early apoptotic cells at 2.5 uM incubated for 48 hrs by annexin V-FITC/PI satining based flow cytometry (reference value: 1.93 %); type: functional
HL-60 [25] = assay: Induction of apoptosis in human HL-60 cells assessed as necrotic cells at 0.6 uM incubated for 48 hrs by annexin V-FITC/PI satining based flow cytometry (reference value: 0.04 %); type: functional
HL-60 [26] = assay: Induction of apoptosis in human HL-60 cells assessed as early apoptotic cells at 1.2 uM incubated for 48 hrs by annexin V-FITC/PI satining based flow cytometry (reference value: 2.4 %); type: functional
U-937 [27] = assay: Induction of apoptosis in human U-937 cells assessed as early apoptotic cells at 5 uM incubated for 48 hrs by annexin V-FITC/PI satining based flow cytometry (reference value: 1.93 %); type: functional
U-937 [28] = assay: Induction of differentiation in human U-937 cells assessed as increase in CD11b positive cells at 2.5 uM incubated for 48 hrs by FITC staining based flow cytometry (reference value: […] %); type: functional
HL-60 [29] = assay: Induction of apoptosis in human HL-60 cells assessed as late apoptotic cells at 1.2 uM incubated for 48 hrs by annexin V-FITC/PI satining based flow cytometry (reference value: 2.83 %); type: functional
HL-60 [30] = assay: Induction of apoptosis in human HL-60 cells assessed as early apoptotic cells at 2.5 uM incubated for 48 hrs by annexin V-FITC/PI satining based flow cytometry (reference value: 2.4 %); type: functional
HL-60 [31] = assay: Induction of differentiation in human HL-60 cells assessed as increase in CD11b positive cells at 2.5 uM incubated for 24 hrs by FITC staining based flow cytometry (reference value: 1.12 %); type: functional
HL-60 [32] = assay: Induction of apoptosis in human HL-60 cells assessed as late apoptotic cells at 0.6 uM incubated for 48 hrs by annexin V-FITC/PI satining based flow cytometry (reference value: 2.83 %); type: functional

Sequence of Protein deacetylase HDAC6 (Q9UBN7 whole entry): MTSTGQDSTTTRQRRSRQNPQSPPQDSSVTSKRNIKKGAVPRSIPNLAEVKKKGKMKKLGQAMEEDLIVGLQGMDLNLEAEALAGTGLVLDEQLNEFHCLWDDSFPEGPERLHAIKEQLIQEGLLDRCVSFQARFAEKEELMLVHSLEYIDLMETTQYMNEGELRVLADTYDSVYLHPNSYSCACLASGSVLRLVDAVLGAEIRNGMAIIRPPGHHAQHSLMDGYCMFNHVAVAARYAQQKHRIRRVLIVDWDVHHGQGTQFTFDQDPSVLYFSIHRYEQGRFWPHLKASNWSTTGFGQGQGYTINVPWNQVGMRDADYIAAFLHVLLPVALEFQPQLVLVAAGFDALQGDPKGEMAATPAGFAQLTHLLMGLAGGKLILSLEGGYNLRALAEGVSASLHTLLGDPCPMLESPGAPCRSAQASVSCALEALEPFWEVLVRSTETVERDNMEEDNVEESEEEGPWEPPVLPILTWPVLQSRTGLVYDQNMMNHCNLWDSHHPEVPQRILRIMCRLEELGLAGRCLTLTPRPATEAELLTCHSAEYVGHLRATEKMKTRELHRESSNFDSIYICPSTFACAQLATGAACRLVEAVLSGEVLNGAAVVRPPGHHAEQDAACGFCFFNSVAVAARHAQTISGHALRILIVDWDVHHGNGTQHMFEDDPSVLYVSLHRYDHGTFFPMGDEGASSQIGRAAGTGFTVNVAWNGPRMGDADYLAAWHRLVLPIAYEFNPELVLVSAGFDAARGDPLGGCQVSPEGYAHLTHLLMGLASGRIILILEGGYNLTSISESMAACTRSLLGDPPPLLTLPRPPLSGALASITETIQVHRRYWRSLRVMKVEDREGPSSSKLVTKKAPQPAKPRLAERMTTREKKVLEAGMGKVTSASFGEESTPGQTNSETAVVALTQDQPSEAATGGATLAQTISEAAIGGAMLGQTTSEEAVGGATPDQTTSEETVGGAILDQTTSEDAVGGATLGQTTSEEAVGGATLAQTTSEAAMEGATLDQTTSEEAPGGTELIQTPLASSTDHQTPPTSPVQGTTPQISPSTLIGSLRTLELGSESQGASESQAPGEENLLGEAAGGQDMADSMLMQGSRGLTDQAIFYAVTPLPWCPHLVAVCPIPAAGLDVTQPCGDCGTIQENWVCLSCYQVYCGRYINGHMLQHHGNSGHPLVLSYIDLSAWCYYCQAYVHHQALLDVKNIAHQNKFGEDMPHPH

`Nc1ccccc1NC(=O)c1ccc(NC(=O)c2n[nH]cc2NC(=O)c2c(Cl)cccc2Cl)cc1` gave an IC50 [1] of 723 nM, an Activity (HL-60 [2]) of 1.97% and an inhibition [3] of 98.8%. The Activity (HL-60 [4]) was “Dose-Dependent Effect”, the IC50 (Histone deacetylase 9) was greater than 1000 nM and the Activity (HL-60 [5]) was 3.16%. The inhibition [6] was 31%, the Activity (HL-60 [7]) was 6.09% and the viability at 1 µM (HL-60 [8]) was 43.5%. It also gave an Activity (HL-60 [9]) of 1.61%, an inhibition [10] of 57.5% and an Activity (U-937 [11]) of 15.1%. The AUC [12] was 2368 ng·h/mL, the viability at 0.2 µM (HL-60 [13]) was 96.4% and the IC50 at 72 h [14] was greater than 20000 nM. For the same compound, the inhibition [15] was 35.4%, the viability at 2 µM (U-937 [16]) was 5.82% and the MRT [17] was 23.4 min. The Activity (HL-60 [18]) was 4.87%, the viability at 0.5 µM (U-937 [19]) was 79.8% and the inhibition [20] was 36.3%. It also gave a Cmax [21] of 1430 ng/mL.

`Nc1cc(F)ccc1NC(=O)c1ccc(CNC(=O)/C=C/c2cccnc2)cc1` [TUCIDINOSTAT] showed an Activity (HL-60 [22]) of 2.52%, an Activity (HL-60 [23]) of 0.04% and an Activity (U-937 [24]) of 2.67%. It also gave an Activity (HL-60 [25]) of 0.07%, an Activity (HL-60 [26]) of 3.72% and an Activity (U-937 [27]) of 4.66%. The Activity (U-937 [28]) was 5.59%, the Activity (HL-60 [29]) was 11.5% and the Activity (HL-60 [30]) was 5.95%. The Activity (HL-60 [31]) was 53.5% and the Activity (HL-60 [32]) was 2.27%.

Reference: ChEMBL document CHEMBL5346903, “Discovery of novel and bioavailable histone deacetylases and cyclin-dependent kinases dual inhibitor to impair the stemness of leukemia cells” (Eur J Med Chem, 2023)
